Patent US20220280594A1, “APPLICATION OF POLYPEPTIDE OR DERIVATIVE THEREOF” (CHENGDU HUITAI BIOMEDICINE CO., LTD., priority 2019, published 2022)
Ends that are not written are not given here. PEG = not defined here

Assays:
[1] = tested on: human prostate cancer cells (22RV1); test: scratch assay, migration of 22RV1 cells; type: cell-based; details: 22RV1, 10 μM, 48 hours; control group 25.41 ± 5.01
Outline: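 22RV1 monolayers (seeded 1-2×10^5 cells/well) were scratched, washed, then given 2% FBS medium with 10 μM polypeptide or PBS, triplicate wells, for 48 h. Migration rate (%) = (original − current scratch width)/original width ×100, from ≥3 images per well.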

[2] = tested on: human breast cancer cells (MDA-MB-231); test: scratch assay, migration of MDA-MB-231 cells; type: cell-based; details: MDA-MB-231, 10 μM, 48 hours; control group 36.19 ± 5.15
Outline: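 MDA-MB-231 monolayers (1-2×10^5 cells/well) were scratched, then kept 48 h in medium with 2% FBS containing polypeptide at 10 μM, with a PBS control, in triplicate wells. Migration rate (%) was taken from scratch width: (original − current)/original ×100.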

[3] = tested on: human colon cancer cells (HCT-116); test: scratch assay, migration of HCT-116 cells; type: cell-based; details: HCT-116, 10 μM, 48 hours; control group 47.78 ± 6.07
Outline: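 Confluent HCT-116 monolayers were scratched, washed and cultured 48 h in 2% FBS medium with peptide at 10 μM versus PBS control, triplicate wells. Migration rate (%) = (original minus current scratch width)/original width × 100, from at least 3 images per well.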

[4] = tested on: human liver cancer cells (HepG2); test: scratch assay, migration of HepG2 cells; type: cell-based; details: HepG2, 10 μM, 48 hours; control group 71.01 ± 6.63
Outline: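 HepG2 monolayers scratched, then cultured 48 h in 2% FBS medium with test polypeptides at 10 μM versus PBS control, triplicate wells. Migration rate (%) computed from original versus current scratch width in images.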

[5] = tested on: human pancreatic cancer cells (PANC-1); test: transwell migration assay, PANC-1 cells; type: cell-based; details: PANC-1 transwell migration, 10 μM, 24 hours; control group 360 ± 60
Outline: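 Serum-free PANC-1 cells placed in the upper transwell chamber with complete medium below; after 4-5 h, peptide added to the upper chamber at a final 10 μM. Migration ran 24 h at 37 °C; cells on the membrane underside were methanol-fixed, crystal violet-stained and counted by microscopy.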

[6] = tested on: human lung cancer cells (A549) subcutaneous xenograft; test: lung cancer subcutaneous xenograft animal model, intravenous injection; type: in vivo, mice (BALB/c-nu/nu); details: intravenous 60 mg/kg once every other day, 20 days; for Weight of tumor (g) (mean ± SD): control 2.53 ± 0.17; for Volume of tumor (mm^3) (mean ± SD): control 3373.26 ± 581.44
Outline: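 Female BALB/c-nu/nu mice (4-6 weeks) inoculated subcutaneously with ~2×10^6 A549 cells; grouped once tumours exceeded 100 mm^3. Peptides given intravenously at 60 mg/kg for 20 days versus model control. Tumour weight and volume measured at dissection; body weight recorded every other day.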

[7] = tested on: human breast cancer cells (MCF-7); test: scratch assay, migration of MCF-7 cells; type: cell-based; details: MCF-7, 10 μM, 48 hours; control group 30.97 ± 1.79
Outline: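 MCF-7 monolayers scratched, then cultured 48 hours in 2% FBS medium with test peptide at 10 μM versus PBS control, triplicate wells. Migration rate (%) = (original − current scratch width)/original width × 100, measured from images.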

[8] = tested on: human breast cancer cells (MDA-MB-453); test: scratch assay, migration of MDA-MB-453 cells; type: cell-based; details: MDA-MB-453, 10 μM, 48 hours; control group 32.42 ± 2.04
Outline: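 Confluent MDA-MB-453 monolayers were scratched, then treated with peptide at 10 μM in 2% FBS medium for 48 h, with a PBS control and triplicate wells. Migration rate (%) was taken as (original − current scratch width)/original width ×100 from images.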

[9] = tested on: human non-small cell lung cancer cells (A549); test: scratch assay, migration of A549 cells; type: cell-based; details: A549, 10 μM, 48 hours; control group 75.31 ± 8.19
Outline: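 Confluent A549 monolayers in 24-well plates were scratched, washed with PBS, then cultured 48 h in 2% FBS medium with peptide at 10 μM or PBS control, triplicate wells. Scratch width measured from images; migration rate (%) = (original − current width)/original width × 100.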

Substance	Migration rate (%) (mean ± SD, P) [1]	Migration rate (%) (mean ± SD, P) [2]	Migration rate (%) (mean ± SD, P) [3]	Migration rate (%) (mean ± SD, P) [4]	Number of cells (mean ± SD, P), migrated cells [5]	Weight of tumor (g) (mean ± SD) [6]	Volume of tumor (mm^3) (mean ± SD) [6]	Migration rate (%) (mean ± SD, P) [7]	Migration rate (%) (mean ± SD, P) [8]	Migration rate (%) (mean ± SD, P) [9]
N45: SEQ ID NO: 1 with V11R, deletion of positions 1-5 and 15-18, PEG modification at the carboxyl terminal (LAKENRTQD-{PEG}; reading uncertain)	11.63 ± 2.82,* %	13.02 ± 4.54,** %	28.34 ± 2.87,** %	52.98 ± 4.08,* %	135 ± 10,***	0.97 ± 0.28 g	1204.87 ± 212.94 mm^3	17.06 ± 2.87,* %	5.53 ± 2.87,*** %	56.03 ± 4.21,* %
N24: SEQ ID NO: 1 with substitution A7R, deletion of positions 1-2 and of position 18 (VRFLRKENVTQDAED)	8.44 ± 1.63,** %	20.97 ± 3.37,* %	12.14 ± 2.49,*** %	16.38 ± 6.48,*** %	239 ± 24,*	0.81 ± 0.25 g	1099.3 ± 512.53 mm^3	9.43 ± 1.12,** %	15.84 ± 4.44,* %	31.05 ± 3.60,** %
N49: SEQ ID NO: 1 with A7R, deletion of positions 1-2 and position 18, PEG modification at the carboxyl terminal (VRFLRKENVTQDAED-{PEG}; reading uncertain)	6.18 ± 1.89,** %	13.41 ± 3.12,** %	18.84 ± 2.99,** %	16.45 ± 5.88,*** %	137 ± 29,***	0.73 ± 0.26 g	1513.42 ± 287.49 mm^3	7.29 ± 3.80,** %	15.79 ± 4.48,** %	27.20 ± 6.23,** %
N17: SEQ ID NO: 1 with addition of two amino acids to the carboxyl terminal (YRVRFLAKENVTQDAEDNCT)	4.61 ± 1.64,** %	12.04 ± 4.13,** %	23.09 ± 2.41,*** %	43.42 ± 3.16,** %	244 ± 14,*	0.9 ± 0.16 g	1301.58 ± 329.64 mm^3	11.47 ± 4.24,** %	4.51 ± 1.96,*** %	18.31 ± 9.26,** %
N15: SEQ ID NO: 1 with substitution N18R and addition of one amino acid to the carboxyl terminal (YRVRFLAKENVTQDAEDRC)	8.36 ± 2.03,** %	13.03 ± 5.72,** %	10.41 ± 2.99,*** %	53.20 ± 5.58,* %	220 ± 18,**	0.95 ± 0.18 g	1307.48 ± 416.26 mm^3	11.57 ± 2.10,** %	8.95 ± 2.93,*** %	14.98 ± 9.09,** %
